Data: ChEMBL document CHEMBL1130925, “Anti-AIDS agents. 33. Synthesis and anti-HIV activity of mono-methyl substituted 3',4'-di-O-(-)-camphanoyl-(+)-cis-khellactone (DCK) analogues” (Bioorg Med Chem Lett, 1998)

Columns and labels:
[1] = Compound was tested for anti HIV activity by measuring therapeutic index in H9 lymphocytes; IC50/EC50; format: organism-based; conditions: human immunodeficiency virus, H9 lymphocytes infected with HIV; read-out: TI
H9 [2] = experiment: Compound was evaluated for anti-HIV activity in acutely infected H9 Lymphocytes; format: functional, cell-based; conditions: Homo sapiens
H9 [3] = experiment: Compound was evaluated for anti-HIV activity and the concentration that inhibits uninfected H9 cell growth by 50%; format: functional, cell-based; conditions: Homo sapiens

CC1(C)Oc2ccc3ccc(=O)oc3c2[C@@H](OC(=O)C23CCC(C)(C(=O)O2)C3(C)C)[C@H]1OC(=O)C12CCC(C)(C(=O)O1)C2(C)C (stereo not given in full)
selectivity ratio [1]: 137000

Cc1cc2ccc(=O)oc2c2c1OC(C)(C)[C@H](OC(=O)C13CCC(C)(C(=O)O1)C3(C)C)[C@@H]2OC(=O)C12CCC(C)(C(=O)O1)C2(C)C (stereo not given in full)
EC50 (H9 [2]): 150 nM | IC50 (H9 [3]): 33000 nM | selectivity ratio [1]: 220

Cc1cc2ccc3c(c2oc1=O)[C@@H](OC(=O)C12CCC(C)(C(=O)O1)C2(C)C)[C@@H](OC(=O)C12CCC(C)(C(=O)O1)C2(C)C)C(C)(C)O3 (stereo not given in full)
EC50 (H9 [2]): 0.000157 nM | IC50 (H9 [3]): > 157000 nM

Cc1cc2c(c3oc(=O)ccc13)[C@@H](OC(=O)C13CCC(C)(C(=O)O1)C3(C)C)[C@@H](OC(=O)C13CCC(C)(C(=O)O1)C3(C)C)C(C)(C)O2 (stereo not given in full)
EC50 (H9 [2]): 0.000423 nM | IC50 (H9 [3]): > 157000 nM

Cc1cc(=O)oc2c3c(ccc12)OC(C)(C)[C@H](OC(=O)C12CCC(C)(C(=O)O1)C2(C)C)[C@@H]3OC(=O)C12CCC(C)(C(=O)O1)C2(C)C (stereo not given in full)
EC50 (H9 [2]): 0.000157 nM | IC50 (H9 [3]): > 157000 nM
